According to patent US5668159A, “1,3,4-thiadiazoles and 1,3,4-oxadiazoles as IIb/IIIa antagonists” (The DuPont Merck Pharmaceutical Company, priority 1996, dated 1997):
pIC50: −log10 of the molar value. Where a name gives a salt, the structure may show the parent alone.

Tested on: platelet aggregation (platelet rich plasma (PRP))
Assay: Platelet Aggregation Assay (inhibition of agonist-induced platelet aggregation in platelet rich plasma)
Format: cell-based
Conditions: with esterase, ester prodrugs preincubated with 100 IU/mL porcine liver esterase 2 hours at 37° C., human PRP, 100 μM ADP, read-out: Platelet Aggregation Assay IC50 (with esterase)
Method: Platelet Aggregation Assay: Venous blood was obtained from the arm of a healthy human donor who was drug-free and aspirin-free for at least two weeks prior to blood collection. Blood was collected into 10 mL citrated Vacutainer tubes. The blood was centrifuged for 15 minutes at 150× g at room temperature, and platelet-rich plasma (PRP) was removed. The remaining blood was centrifuged for 15 minutes at 1500× g at room temperature, and platelet-poor plasma (PPP) was removed. Samples were assayed on a aggregometer (PAP-4 Platelet Aggregation Profiler), using PPP as the blank (100% transmittance). 200 μL of PRP was added to each micro test tube, and transmittance was set to 0%. 20 μL of various agonists (ADP, collagen, arachidonate, epinephrine, thrombin) were added to each tube, and the aggregation profiles were plotted (% transmittance versus time). The results are expressed as % inhibition of agonist-inducedplatelet aggregation. For the IC50 evaluation, the test compounds were added at various concentrations prior to the activation of the platelets.
Ester prodrugs were preincubated (10^-3 M F.C.) with 100 IU/mL Porcine liver esterase (Sigma Chemical Co., St. Louis, Mo., #E-3128) for 2 hours at 37° C. Aliquots are then diluted in 0.1M Tris, p H 7.4, to the desired concentrations. Aliquots of 20 μl of the esterase pretreated prodrugs are added to 200 μl of human platelet rich plasma. Samples were placed in platelet profiler (aggregometer) for 8 minutes at 37° C., followed by the addition of 100 μM Adenosine Diphosphate, (Sigma Chemical Co., St. Louis, Mo., #A-6521), to induce platelet aggregation. Platelet aggregation was allowed to proceed for 5 minutes. Percent inhibition is calculated using percent aggregation in the presence of the test compound divided by percent aggregation of control, times 100. This value is subtracted from 100, yielding percent inhibition. Calculation of IC50 is performed on a Texas Instruments TI59 with an IC50 program.
Table A below sets forth the antiplatelet activity of representative compounds of the present invention. The indicated compounds were tested for their ability to inhibit platelet aggregation (using platelet rich plasma (PRP)). The IC50 value (the concentration of antagonist which inhibits platelet aggregation by 50% relative to a control lacking the antagonist) is shown. In Table A the IC50 values are expressed as: +++=IC50 of <10 μM; ++=IC50 of […]; +=IC50 of 50-100 μM (μM=micromolar).

Row | Structure (SMILES) | pIC50
1 | CCCCOC(=O)N[C@@H](CNC(=O)Cc1nnc(-c2ccc(C(=N)N)cc2)o1)C(=O)OC [Example 318, Methyl N^3-[2-{2-(4-amidinophenyl)-1,3,4-oxadiazol-5-yl}-acetyl]-N-^2-(n-butyloxycarbonyl)-2,3-(S)-diaminopropionate TFA salt] | 4.00 to 4.30
2 | CCCCOC(=O)N[C@@H](CNC(=O)CSc1nnc(-c2ccc(C(=N)N)cc2)o1)C(=O)OC [Example 258, Methyl N^3-[2-{2-(4-amidinophenyl)-1,3,4-oxadiazol-5-ylthio}-acetyl]-N^2-(n-butyloxycarbonyl)-2,3-(S)-diamino propionate HCl salt] | > 5.00
